# Assay results published in publication PMC8078842 (PLoS Neglected Tropical Diseases, 2021).
# Counter-ions that a name gives are not always drawn. Like-named read-outs stand apart in the source and are kept apart here. Bridge positions count the residues as written; N and C are the ends. Ends that are not written are not given here.
# Experiments:
# [1] = molecular target: Glutamate, NMDA Agonist Site (Ionotropic); parameters: method as in PERKIN ELMER; settings: reference compound of the assay; ref PERKIN ELMER; cited from earlier work
# [2] = tested on: P-gp (human MDR1); experiment: in vitro; settings: dog, UPLC-MS/MS
# [3] = molecular target: Glutamate, AMPA Site (Ionotropic); parameters: method as in PERKIN ELMER; settings: reference compound of the assay; ref PERKIN ELMER; cited from earlier work
# [4] = molecular target: Corticotropin Releasing Factor, Non-selective; parameters: method as in PERKIN ELMER; settings: reference compound of the assay; ref PERKIN ELMER; cited from earlier work
# [5] = molecular target: Muscarinic, Non-selective, Central; parameters: method as in PERKIN ELMER; settings: reference compound of the assay; ref PERKIN ELMER; cited from earlier work
# [6] = molecular target: Decarboxylase, Glutamic Acid; parameters: method as in PERKIN ELMER; settings: reference compound of the assay; ref PERKIN ELMER; cited from earlier work
# [7] = molecular target: Glycine, Strychnine-sensitive; settings: read-out: Reference Ki; reference compound of the assay; ref PERKIN ELMER; cited from earlier work
# [8] = molecular target: Esterase, Acetylcholine; parameters: method as in PERKIN ELMER; settings: reference compound of the assay; ref PERKIN ELMER; cited from earlier work
# [9] = molecular target: Angiotensin II, AT2; parameters: method as in PERKIN ELMER; settings: reference compound of the assay; ref PERKIN ELMER; cited from earlier work
# [10] = molecular target: Histamine, H1; parameters: method as in PERKIN ELMER; settings: reference compound of the assay; ref PERKIN ELMER; cited from earlier work
# [11] = molecular target: GABA A, BDZ, alpha 1 site; settings: read-out: Reference Ki; reference compound of the assay; ref PERKIN ELMER; cited from earlier work
# [12] = molecular target: Melatonin, Non-selective; parameters: method as in PERKIN ELMER; settings: reference compound of the assay; ref PERKIN ELMER; cited from earlier work
# [13] = molecular target: T1, Oxidase, MAO-A-Peripheral (Rattus norvegicus, UniProt P21396); parameters: method as in PERKIN ELMER; settings: reference compound of the assay; ref PERKIN ELMER; cited from earlier work
# T1 sequence (P21396 1-526): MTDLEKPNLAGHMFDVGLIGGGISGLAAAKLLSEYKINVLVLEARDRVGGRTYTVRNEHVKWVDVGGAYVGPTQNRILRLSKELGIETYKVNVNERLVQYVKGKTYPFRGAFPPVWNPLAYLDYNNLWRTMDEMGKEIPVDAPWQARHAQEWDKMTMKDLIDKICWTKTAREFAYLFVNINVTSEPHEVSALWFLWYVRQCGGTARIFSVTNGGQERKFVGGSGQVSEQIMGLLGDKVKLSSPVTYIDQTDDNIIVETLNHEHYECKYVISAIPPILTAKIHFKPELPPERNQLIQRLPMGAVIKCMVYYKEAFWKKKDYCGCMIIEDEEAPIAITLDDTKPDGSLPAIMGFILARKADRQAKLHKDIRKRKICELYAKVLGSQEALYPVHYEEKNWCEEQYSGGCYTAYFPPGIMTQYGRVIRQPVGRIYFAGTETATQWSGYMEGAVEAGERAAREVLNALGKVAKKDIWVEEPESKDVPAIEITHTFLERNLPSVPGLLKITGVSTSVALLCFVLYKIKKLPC
# [14] = cited from earlier work
# [15] = molecular target: Cholecystokinin, CCK2 (CCKB); parameters: method as in PERKIN ELMER; settings: reference compound of the assay; ref PERKIN ELMER; cited from earlier work
# [16] = molecular target: Sodium, Site 2; parameters: method as in PERKIN ELMER; settings: reference compound of the assay; ref PERKIN ELMER; cited from earlier work
# [17] = molecular target: Glutamate, MK-801 Site (Ionotropic); parameters: method as in PERKIN ELMER; settings: reference compound of the assay; ref PERKIN ELMER; cited from earlier work
# [18] = molecular target: Adrenergic, Beta, Non-selective; parameters: method as in PERKIN ELMER; settings: reference compound of the assay; ref PERKIN ELMER; cited from earlier work
# [19] = molecular target: Potassium Channel, ATP-Sensitive; parameters: method as in PERKIN ELMER; settings: reference compound of the assay; ref PERKIN ELMER; cited from earlier work
# [20] = molecular target: Glutamate,NMDA,Glycine (Stry-insens Site) (Ionot); settings: read-out: Reference Ki; reference compound of the assay; ref PERKIN ELMER; cited from earlier work
# [21] = molecular target: Imidazoline, I2 [central]; parameters: method as in PERKIN ELMER; settings: reference compound of the assay; ref PERKIN ELMER; cited from earlier work
# [22] = molecular target: Adenosine, Non-selective; settings: read-out: Reference Ki; reference compound of the assay; ref PERKIN ELMER; cited from earlier work
# [23] = molecular target: Potassium Channel, Ca2+ Act., VI; parameters: method as in PERKIN ELMER; settings: reference compound of the assay; ref PERKIN ELMER; cited from earlier work
# [24] = tested on: human red blood cells; experiment: Haemolysis assay; format: cell-based
# Procedure: Haemolysis Assay. The assay is based on the protocol detailed by. To determine the total blood haemoglobin, the CMH method was used to map a standard curve based on the absorption wavelength at 540 nm. Nine calibration standards were produced by preparing a stock solution of 5 mg/ml (standard 1) using haemoglobin standards in CMH reagent and serially diluting it to produce further standards of concentrations 2.5, 1, 0.80, 0.40, 0.20, 0.10, 0.05, and 0.025 mg/ml. 10% Triton X-100 (v/v) was prepared using distilled water to be used as the positive control. A 0.05% solution of DMSO was prepared using distilled water and used as one of the negative controls. 0.9% saline was another negative control. Pluronic samples were prepared in 0.9% saline.
# A 5 ml vial of whole blood was centrifuged at 800 g for 15 minutes at room temperature. The supernatant was removed, and the […] was used to determine the plasma free haemoglobin (PFH) concentration.
# 200 μl x 2 of each of the calibration standards prepared were then transferred onto the 96-well plate and 200 μl x 4 of CMH reagent (control 1). […] After shaking it gently for a few minutes, the absorbance was read at 540 nm. […] 100 μl of CMH reagent was added to all these before measuring the absorbance spectrophotometrically at 540 nm. Using the calibration curve mapped earlier, the haemoglobin concentration in each of the wells was determined. […]
# [25] = molecular target: Nicotinic, Neuronal (a-BnTx insensitive); parameters: method as in PERKIN ELMER; settings: reference compound of the assay; ref PERKIN ELMER; cited from earlier work
# [26] = molecular target: Glutamate, Kainate Site (Ionotropic); parameters: method as in PERKIN ELMER; settings: reference compound of the assay; ref PERKIN ELMER; cited from earlier work
# [27] = molecular target: Nitric Oxide, NOS (Neuronal-Binding); parameters: method as in PERKIN ELMER; settings: reference compound of the assay; ref PERKIN ELMER; cited from earlier work
# [28] = MDCK-MDR1, pH 7.4, Papp A2B Replicate 1, 10 µM
# [29] = MDCK-MDR1, pH 7.4, Papp A2B Replicate 2, 10 µM
# [30] = MDCK-MDR1, pH 7.4, Papp B2A Replicate 1, 10 µM
# [31] = MDCK-MDR1, pH 7.4, Papp B2A Replicate 2, 10 µM
compound,measurement,setting,value
CN[C@H](CC(=O)O)C(=O)O [NMDA],Ki,[1],6810 nM
COc1cc2nc(N3CCN(C(=O)c4ccco4)CC3)nc(N)c2cc1OC [prazosin],"Papp A→B at 1 h, 10 µM",[2]; [28],2.48 ×10⁻⁶ cm/s
same,"Papp A→B at 1 h, 10 µM",[2]; [29],1.96 ×10⁻⁶ cm/s
same,"Papp B→A at 1 h, 10 µM",[2]; [30],69.5 ×10⁻⁶ cm/s
same,"Papp B→A at 1 h, 10 µM",[2]; [31],70.7 ×10⁻⁶ cm/s
Cc1o[nH]c(=O)c1CC(N)C(=O)O (racemic) [(+/-) AMPA HBr],Ki,[3],90.7 nM
Tyr0-oCRF,Ki,[4],10.7 nM
CN1[C@@H]2CC[C@H]1C[C@@H](OC(=O)C(CO)c1ccccc1)C2 (some centres unmarked) [Atropine sulfate],Ki,[5],0.311 nM
NOCC(=O)O [AminoOxy acetic acid],Ki,[6],1170 nM
O=C1C[C@@H]2OCC=C3CN4CC[C@]56c7ccccc7N1[C@H]5[C@H]2[C@H]3C[C@H]46 [Strychnine nitrate],Ki,[7],28.1 nM
CNC(=O)Oc1ccc2c(c1)[C@]1(C)CCN(C)[C@@H]1N2C [Eserine (Physostigmine)],Ki,[8],385 nM
Angiotensin II (Human),Ki,[9],0.255 nM
Cc1ccc(/C(=C\CN2CCCC2)c2ccccn2)cc1 [Triprolidine],Ki,[10],7.33 nM
CCOC(=O)c1ncn2c1CN(C)C(=O)c1cc(F)ccc1-2 [Ro15-1788 (Flumazenil)],Ki,[11],0.721 nM
c1cc2c(cc1C1CCCCC1)c1c3n2CCNC3CCC1 (centres unmarked) [Tetrindole mesylate],Ki,[13],23.4 nM
c1cc2ccc3cccc4ccc(c1)c2c34 [pyrene],log P for pyrene/Pluronics,[14]; F68,ca. 2.5
same,log P for pyrene/Pluronics,[14]; P105,~3.5
CCK-8 (sulfated),Ki,[15],0.307 nM
CCN1C[C@]2(COC)[C@H](O)C[C@H](OC)[C@@]34[C@@H]5C[C@@]6(O)[C@H](OC(=O)c7ccccc7)[C@@H]5[C@@](OC(C)=O)([C@@H]([C@H](OC)[C@H]23)[C@@H]14)[C@@H](O)[C@@H]6OC [Aconitine],Ki,[16],2290 nM
(+)-MK-801 HMaleate,Ki,[17],12.4 nM
C=CCc1ccccc1OCC(O)CNC(C)C (centres unmarked) [Alprenolol HCl],Ki,[18],4.55 nM
COc1ccc(Cl)cc1C(=O)NCCc1ccc(S(=O)(=O)NC(=O)NC2CCCCC2)cc1 [Glibenclamide],Ki,[19],0.781 nM
"O=C(O)/C(=C/c1c(C(=O)O)[nH]c2cc(Cl)cc(Cl)c12)c1ccccc1 [MDL-105,519]",Ki,[20],31.5 nM
c1ccc2oc(C3=NCCN3)cc2c1 [2-BFI],Ki,[21],0.381 nM
CCNC(=O)[C@H]1O[C@@H](n2cnc3c(N)ncnc32)[C@H](O)[C@@H]1O [Neca],Ki,[22],7.46 nM
"Apamin (CNCKAPETALCARRCQQH-NH2; disulfide 1-11, 3-15; ends not checked; UniProt P01500 28-45, looked up)",Ki,[23],0.205 nM
CC(C)NCC(O)COc1cccc2ccccc12 (centres unmarked) [propranolol],"Papp A→B at 1 h, 10 µM",[2]; [28],34.1 ×10⁻⁶ cm/s
same,"Papp A→B at 1 h, 10 µM",[2]; [29],28 ×10⁻⁶ cm/s
same,"Papp B→A at 1 h, 10 µM",[2]; [30],41.4 ×10⁻⁶ cm/s
same,"Papp B→A at 1 h, 10 µM",[2]; [31],41.6 ×10⁻⁶ cm/s
Triton X-100 [10% Triton X-100],haemolysis,[24],caused haemolysis
Clc1ccc([C@@H]2C[C@H]3CC[C@@H]2N3)cn1 (racemic) [(+/-) Epibatidine],Ki,[25],0.0912 nM
C=C(C)[C@H]1CN[C@H](C(=O)O)[C@H]1CC(=O)O [Kainic Acid],Ki,[26],10.8 nM
NC(=NCCC[C@H](N)C(=O)O)N[N+](=O)[O-] [NOARG (Nitro-L-Arginine)],Ki,[27],26.3 nM
